Results published in ChEMBL document CHEMBL3525933 (Drug Metab Dispos, 2012).

Key:
[1] = tested on: Plasma; assay: Drug metabolism in Wistar rat plasma assessed as retention time by HPLC-DAD analysis; assay type: ADME, cell-free
[2] = tested on: Plasma; assay: Drug recovery in Wistar rat plasma at 2000 ng/ml by HPLC-DAD analysis; assay type: ADME, cell-free
[3] = species on record: Rattus norvegicus; assay: Drug retention time in Wistar rat by HPLC-DAD analysis; assay type: ADME, organism-based
[4] = Drug excretion in streptozotocin-induced diabetic Wistar rat urine treated with mangiferin at 400 mg/kg, po administered as single dose by HPLC-DAD analysis; assay type: ADME, organism-based; parameters: dose 400 mg/kg, route oral; details: in vivo

Compound | Retention_time [1] [min] | Drug recovery [2] [%] | Retention_time [3] [min] | Drug excretion [4]
O=c1c(-c2ccc(O)cc2)coc2cc(O[C@@H]3O[C@H](CO)[C@@H](O)[C@H](O)[C@H]3O)ccc12 [DAIDZIN] | 9.5 | 85.1 |  | 
O=c1c2cc(O)ccc2oc2cccc(O)c12 |  |  | 40.4 | metabolite_detected
